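These data come from cells grown in 96-well plates and exposed to compound for 48 hours at five concentrations. TGI denotes the concentration required for complete inhibition of growth.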
What was measured:
Experiment in all cases: DTP human tumour cell line panel, 48 h
SK-MEL-5 melanoma = system: SK-MEL-5 melanoma
SK-MEL-2 melanoma = system: SK-MEL-2 melanoma
HCT-116 colon = system: HCT-116 colon
HT29 colon = system: HT29 colon
MDA-MB-231 breast = system: MDA-MB-231 breast
KM12 colon = system: KM12 colon
SF-268 CNS = system: SF-268 CNS
UO-31 renal = system: UO-31 renal
SNB-19 CNS = system: SNB-19 CNS
COLO 205 colon = system: COLO 205 colon
HS 578T breast = system: HS 578T breast
IGROV1 ovarian = system: IGROV1 ovarian
UACC-257 melanoma = system: UACC-257 melanoma
OVCAR-8 ovarian = system: OVCAR-8 ovarian
LOX IMVI melanoma = system: LOX IMVI melanoma
NCI-H522 lung = system: NCI-H522 lung
MDA-MB-435 = system: MDA-MB-435
T-47D breast = system: T-47D breast
SW-620 colon = system: SW-620 colon
SR leukemia = system: SR leukemia
CAKI-1 renal = system: CAKI-1 renal
HL-60(TB) leukemia = system: HL-60(TB) leukemia
A498 renal = system: A498 renal
HCT-15 colon = system: HCT-15 colon
SF-295 CNS = system: SF-295 CNS
OVCAR-4 ovarian = system: OVCAR-4 ovarian
MDA-N = system: MDA-N
U251 CNS = system: U251 CNS
M14 melanoma = system: M14 melanoma
SN12C renal = system: SN12C renal
MCF7 breast = system: MCF7 breast
UACC-62 melanoma = system: UACC-62 melanoma
HCC-2998 colon = system: HCC-2998 colon
NCI-H23 lung = system: NCI-H23 lung
NCI-H460 lung = system: NCI-H460 lung
NCI-H226 lung = system: NCI-H226 lung
ACHN renal = system: ACHN renal
CCRF-CEM leukemia = system: CCRF-CEM leukemia
OVCAR-3 ovarian = system: OVCAR-3 ovarian
A549 NSCLC = system: A549 NSCLC
SNB-75 CNS = system: SNB-75 CNS
BT-549 breast = system: BT-549 breast
786-0 renal = system: 786-0 renal
K-562 leukemia = system: K-562 leukemia
DU-145 prostate = system: DU-145 prostate
RXF 393 renal = system: RXF 393 renal
SF-539 CNS = system: SF-539 CNS
MOLT-4 leukemia = system: MOLT-4 leukemia
OVCAR-5 ovarian = system: OVCAR-5 ovarian
SK-MEL-28 melanoma = system: SK-MEL-28 melanoma
NCI/ADR-RES ovarian = system: NCI/ADR-RES ovarian
TK-10 renal = system: TK-10 renal
RPMI-8226 leukemia = system: RPMI-8226 leukemia
MALME-3M melanoma = system: MALME-3M melanoma
EKVX NSCLC = system: EKVX NSCLC
SK-OV-3 ovarian = system: SK-OV-3 ovarian
HOP-92 NSCLC = system: HOP-92 NSCLC
PC-3 prostate = system: PC-3 prostate
HOP-62 NSCLC = system: HOP-62 NSCLC

Compound: O=P(Nc1ccccc1)(Oc1ccccc1)N1CCN(c2ccccc2)CC1 (centres undefined)
- TGI (SK-MEL-5 melanoma): 33.5 µM
- TGI (SK-MEL-2 melanoma): 35.7 µM
- TGI (HCT-116 colon): 32.8 µM
- TGI (HT29 colon): 29.3 µM
- TGI (MDA-MB-231 breast): 28.9 µM
- TGI (KM12 colon): 33.5 µM
- TGI (SF-268 CNS): 84.1 µM
- TGI (UO-31 renal): 31 µM
- TGI (SNB-19 CNS): 32.1 µM
- TGI (COLO 205 colon): 34.9 µM
- TGI (HS 578T breast): 40.5 µM
- TGI (IGROV1 ovarian): 40.4 µM
- TGI (UACC-257 melanoma): 36.7 µM
- TGI (OVCAR-8 ovarian): 49.8 µM
- TGI (LOX IMVI melanoma): 33.5 µM
- TGI (NCI-H522 lung): 19.7 µM
- TGI (MDA-MB-435): 51.5 µM
- TGI (T-47D breast): 58.5 µM
- TGI (SW-620 colon): 63.6 µM
- TGI (SR leukemia): > 100 µM
- TGI (CAKI-1 renal): 58.3 µM
- TGI (HL-60(TB) leukemia): > 100 µM
- TGI (A498 renal): 35.6 µM
- TGI (HCT-15 colon): 35 µM
- TGI (SF-295 CNS): 33.6 µM
- TGI (OVCAR-4 ovarian): 62.5 µM
- TGI (MDA-N): 31.6 µM
- TGI (U251 CNS): 30.8 µM
- TGI (M14 melanoma): 28.6 µM
- TGI (SN12C renal): 36 µM
- TGI (MCF7 breast): 32.1 µM
- TGI (UACC-62 melanoma): 25.8 µM
- TGI (HCC-2998 colon): 29.9 µM
- TGI (NCI-H23 lung): 36.9 µM
- TGI (NCI-H460 lung): 33.3 µM
- TGI (NCI-H226 lung): 43.9 µM
- TGI (ACHN renal): 53.9 µM
- TGI (CCRF-CEM leukemia): > 100 µM
- TGI (OVCAR-3 ovarian): 39.7 µM
- TGI (A549 NSCLC): 38.5 µM
- TGI (SNB-75 CNS): 30.4 µM
- TGI (BT-549 breast): 29.5 µM
- TGI (786-0 renal): 53.6 µM
- TGI (K-562 leukemia): > 100 µM
- TGI (DU-145 prostate): 49.4 µM
- TGI (RXF 393 renal): 33.9 µM
- TGI (SF-539 CNS): 33.9 µM
- TGI (MOLT-4 leukemia): 52.6 µM
- TGI (OVCAR-5 ovarian): 33.5 µM
- TGI (SK-MEL-28 melanoma): 35.2 µM
- TGI (NCI/ADR-RES ovarian): 39 µM
- TGI (TK-10 renal): 52.2 µM
- TGI (RPMI-8226 leukemia): > 100 µM
- TGI (MALME-3M melanoma): 33.4 µM
- TGI (EKVX NSCLC): 51.1 µM
- TGI (SK-OV-3 ovarian): 33.3 µM
- TGI (HOP-92 NSCLC): 33.9 µM
- TGI (PC-3 prostate): 51.7 µM
- TGI (HOP-62 NSCLC): 32.3 µM

Source: PubChem BioAssay (NCI)
